{"source": "patent US8012978B2", "about": "“Prodrugs of CC-A1065 analogs” (ImmunoGen, Inc., priority 2006, dated 2011)", "molecules": {"B1": {"name": "huC242-DC07: huC242-DC07 (thioether linked) conjugate (conjugate, chains of the INN, looked up)", "VH": "QVQLVQSGAEVKKPGETVKISCKASDYTFTYYGMNWVKQAPGQGLKWMGWIDTTTGEPTYAQKFQGRIAFSLETSASTAYLQIKSLKSEDTATYFCARRGPYNWYFDVWGQGTTVTVSS", "VL": "DIVMTQSPLSVPVTPGEPVSISCRSSKSLLHSNGNTYLYWFLQRPGQSPQLLIYRMSNLVSGVPDRFSGSGSGTAFTLRISRVEAEDVGVYYCLQHLEYPFTFGPGTKLELK", "modifications": "DC07 drug, thioether linked", "notes": "huC242-DC07 (thioether linked) conjugate"}}, "key": {"[1]": {"details": "cited from earlier work"}, "mice": {"test_system": "mice", "details": "single intravenous dose of 12.5 μg/kg; cited from earlier work"}, "HL60 cells": {"test_system": "HL60 cells", "test": "In vitro cytotoxicity towards HL60 cells", "assay_type": "cell-based, human", "details": "HL60/s cells, 5-day exposure; read-out: IC50 Concentration", "procedure": "(§1) Sulfide or disulfide-containing and mercapto-containing prodrugs of CC-1065 analogs of the present invention can be evaluated for their ability to suppress proliferation of various unwanted cell lines in vitro under incubation conditions. Cell lines such as, for example, Ramos cell line and HL60 can easily be used for the assessment of the cytotoxicity of these compounds. Cells to be evaluated can be exposed to the compounds for 24 hours and the surviving fractions of cells measured in direct assays by known methods. IC50 values can then be calculated from the results of the assays.\nCytotoxicity of the prodrugs of the present invention and their conjugates with cell binding agents can be measured after cleavage of the protecting group and conversion into the active drug. Cytotoxicity to non-adherent cell lines such as Namalwa and HL60 can be measured by back-extrapolation of cell proliferation curves as described in Goldmacher et al, 135 J. Immunol. 3648-3651 (1985). Cytotoxicity of these compounds to adherent cell lines such as A-375 and SCaBER can be determined by clonogenic assays as described in Goldmacher et al, 102 J. Cell Biol. 1312-1319 (1986). […]\n• Cytotoxicity of DC07-SMe (FIG. 2) and DC1-SMe (FIG. 1D) towards Ramos and HL60/S cells has been measured in vitro with 5-day exposure. […]\n• Cytotoxicity of DC1-SPy and DC07-SPy towards Ramos and HL60 cells has been measured. […]"}, "Ramos cells": {"test_system": "Ramos cells", "test": "In vitro cytotoxicity towards Ramos cells", "assay_type": "cell-based, human", "procedure": "as §1\n(§2) Cytotoxicity of the prodrugs of the present invention and their conjugates with cell binding agents can be measured after cleavage of the protecting group and conversion into the active drug. Cytotoxicity to non-adherent cell lines such as Namalwa and HL60 can be measured by back-extrapolation of cell proliferation curves as described in Goldmacher et al, 135 J. Immunol. 3648-3651 (1985). Cytotoxicity of these compounds to adherent cell lines such as A-375 and SCaBER can be determined by clonogenic assays as described in Goldmacher et al, 102 J. Cell Biol. 1312-1319 (1986).\n(§3) The human cancer cell lines HL60, Namalwa, A-375, COLO205 and Ramos were obtained from the American Type Culture Collection (ATCC). Kara is a murine tumor cell line that has been stably transfected with the human CD33 antigen.\n• Cytotoxicity of DC07-SMe (FIG. 2) and DC1-SMe (FIG. 1D) towards Ramos and HL60/S cells has been measured in vitro with 5-day exposure. IC50 are shown below.\n• Cytotoxicity of DC1-SPy and DC07-SPy towards Ramos and HL60 cells has been measured. Results are given in FIG. 7 and IC50 are shown below.\n(§4) • Cytotoxicity of DC08-SSPy towards Namalwa and Ramos cells has been measured. Results are given in FIG. 8 and IC50 are shown below.\n• Cytotoxicity of MY9-6-DC07 (disulfide linked) towards antigen positive Kara and antigen negative Ramos cells has been measured. Results are given in FIG. 9 and IC50 are shown below."}, "[2]": {"test": "Conversion of prodrug by incubation in mice serum", "assay_type": "in vitro ADME", "text": "(§5) The synthesis of prodrugs DC07 (7a), DC08 (8a) and DC107 (FIG. 4) is described herein. DC07 and DC08 as well as DC107 are derived from the parent drug DC1 and DC101, while DC09 (9a) can be prepared from the pegylated parent drug DC5 which was described in U.S. Pat. No. 6,756,397 B2 (FIG. 3). […] These drugs also have enhanced water solubility as compared with DC1."}, "[3]": {"test": "Stability in aqueous solutions", "assay_type": "physicochemical", "details": "pH 5.5 or below", "text": "as §5"}, "[4]": {"test": "Conversion of prodrug by incubation in serum or plasma", "assay_type": "in vitro ADME", "text": "as §5"}, "Namalwa cells": {"test_system": "Namalwa cells", "test": "In vitro cytotoxicity towards Namalwa cells", "assay_type": "cell-based, human", "details": "Namalwa cells (FIG. 8)", "text": "as §2, §3, §4"}, "COLO 205 cells": {"test_system": "COLO 205 cells", "test": "In vitro cytotoxicity towards antigen positive COLO 205 cells", "assay_type": "cell-based, human", "text": "as §2, §3\n(§6) • Cytotoxicity of huC242-DC07 (thioether linked) towards antigen positive COLO 205 and antigen negative A-375 cells has been measured. Results are given in FIG. 10 and IC50 are shown below."}, "A-375 cells": {"test_system": "A-375 cells", "test": "In vitro cytotoxicity towards antigen negative A-375 cells", "assay_type": "cell-based, human", "text": "as §2, §3, §6"}, "[5]": {"details": "Ramos cells, 5-day exposure, read-out: IC50 Concentration"}}, "note": "Like-named read-outs stand apart in the source and are kept apart here.", "data": [{"molecule": "COc1c(O)c2c(c3cc(C(=O)N4CCc5c4c(O)c(OC)c4[nH]c(C(=O)N6CC7CC78C6=CC(=O)c6[nH]cc(C)c68)cc54)[nH]c13)CCN2C(N)=O", "note": "(stereo not shown) [CC-1065]", "values": [{"measurement": "potency in vitro relative to doxorubicin, methotrexate and vincristine", "setting": "[1]", "value": "about 1000 fold"}, {"measurement": "toxicity", "setting": "mice", "value": "delayed hepatotoxicity leading to mortality on day 50"}]}, {"molecule": "CSSCCC(=O)Nc1ccc2[nH]c(C(=O)Nc3ccc4[nH]c(C(=O)N5C[C@@H](CCl)c6c5cc(O)c5ccccc65)cc4c3)cc2c1", "note": "[DC1-SMe, 1-[S]-(chloromethyl)-5-hydroxy-3-{{5-[5-(3-methyldithiopropionyl)indol-2-yl-carbonylamino]indole-2-yl}carbonyl}-1,2-dihydro-3H-benz[e]indole, reference compound]", "values": [{"measurement": "IC50", "setting": "HL60 cells", "value": 0.036, "unit": "nM"}, {"measurement": "IC50", "setting": "Ramos cells; [5]", "value": 0.062, "unit": "nM"}]}, {"molecule": "CSSCCC(=O)Nc1ccc2[nH]c(C(=O)Nc3ccc4[nH]c(C(=O)N5C[C@@H](CCl)c6c5cc(OC(=O)Nc5cccc(S(=O)(=O)O)c5)c5ccccc65)cc4c3)cc2c1", "note": "[DC07-SMe]", "values": [{"measurement": "IC50", "setting": "HL60 cells", "value": 0.05, "unit": "nM"}, {"measurement": "IC50", "setting": "Ramos cells; [5]", "value": 0.12, "unit": "nM"}, {"measurement": "conversion into the parent drug", "setting": "[2]", "value": "converts it into the parent drug DC1SMe"}]}, {"molecule": "O=C(CCS)Nc1ccc2[nH]c(C(=O)Nc3ccc4[nH]c(C(=O)N5C[C@@H](CCl)c6c5cc(OC(=O)Nc5cccc(S(=O)(=O)O)c5)c5ccccc65)cc4c3)cc2c1", "note": "[DC07]", "values": [{"measurement": "stability in aqueous solutions", "setting": "[3]", "value": "extremely stable"}, {"measurement": "conversion into the parent drug", "setting": "[4]", "value": "can be converted into the parent drug DC1"}]}, {"molecule": "(S)—N-[2-{(1-chloromethyl)-1,2-dihydro-5-[(3-hydroxysulfonylmethyl-phenyl)aminocarbonyloxy]-3H-benz(e)indol-3-yl}carbonyl]-H-indol-5-yl]-5-{[3-(2-pyridyldithio)-propanoyl]-amino}-1H-indole-2-carboxamide [DC08-SSPy]", "values": [{"measurement": "IC50", "setting": "Ramos cells; Ramos cells (FIG. 8), read-out: IC50", "value": 0.42, "unit": "nM"}, {"measurement": "IC50", "setting": "Namalwa cells", "value": 0.42, "unit": "nM"}]}, {"molecule": "B1", "values": [{"measurement": "IC50", "setting": "COLO 205 cells", "value": 0.035, "unit": "nM"}, {"measurement": "IC50", "setting": "A-375 cells", "value": 1.3, "unit": "nM"}]}]}
